Source: patent publication EP0429304A2, “Pyridone-carboxylic acid derivatives and their use as veterinary medicines” (SHIONOGI SEIYAKU KABUSHIKI KAISHA trading under the name of …, priority 1989, dated 1991)
Read-outs that look alike come from different tables or passages of the source.

Key:
[1] = tested on: Mycoplasma synoviae (MS) 1853; assay: In vitro sensitivity test (liquid dilution method); format: cell-based; settings: 37°C, 7 days
Method in brief: (§1)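 Read-out is visual growth after incubation. Conditions were 37°C for 7 days in Frey medium (12 % pig-serum, 0.01 % βNAD; liquid dilution) for MS, and 37°C for 20 to 24 hours on Mueller Hinton agar for S.au. P.pis used 25°C, 40 to 48 hours, on 1.5 % NaCl heart infusion agar.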

[2] = tested on: Mycoplasma synoviae (MS) F10-2as; assay: In vitro sensitivity test (liquid dilution method); format: cell-based; settings: 37°C, 7 days
Method in brief: as §1

[3] = tested on: Mycoplasma gallisepticum (MG) T-7-T, TS-resistant strain isolated from the field; assay: In vitro sensitivity test (liquid dilution method); format: cell-based; settings: 37°C, 7 days
[4] = tested on: Mycoplasma gallisepticum (MG) S6; assay: In vitro sensitivity test (liquid dilution method); format: cell-based; settings: 37°C, 7 days
[5] = tested on: Mycoplasma hyopneumoniae (Mh) ST-11; assay: In vitro sensitivity test (liquid dilution method); format: cell-based; settings: 37°C, 7 days
[6] = tested on: TS-resistant strain of MG; format: in vivo, chicken; settings: 9-days chicken; for Infectious index Left air sack + / Infectious index Left air sack ++ / Infectious index Left air sack +++ / Infectious index Left air sack - / Infectious index Right air sack + / Infectious index Right air sack ++ / Infectious index Right air sack +++ / Infectious index Right air sack -: count of fowl; for Infectious index Left air sack + / Infectious index Left air sack ++ / Infectious index Left air sack +++ / Infectious index Left air sack - / Infectious index Right air sack + / Infectious index Right air sack ++ / Infectious index Right air sack +++ / Infectious index Right air sack - / Number of fowl having air sack lesions: 1.7 x 10³ CFU/fowl; for Number of infected fowl/Number of fowl tested: 3.5 x 10³ CFU/fowl
[7] = tested on: Streptococcus sp (Str.sp) SNO6119; assay: In vitro sensitivity test; format: cell-based; settings: 25°C, 40 to 48 hours
[8] = tested on: Pasteurella piscicida (P.pis) No. 2; assay: In vitro sensitivity test; format: cell-based; settings: 25°C, 40 to 48 hours
Method in brief: as §1

[9] = tested on: H.pp (otherwise called Actinobacillus pleuropneumoniae) strain M-1; assay: Experimental H.pp infection to pig, through injection; format: in vivo; settings: injection to thigh muscle one time, Dose 5 mg/kg; dissection 6 days after inoculation
Protocol: In these experiments, the compound (I) was applied to the designated animals by (1) oral administration, (2) incorporation into baits and (3) intramuscular injection, the details of which are explained below.
(3) Preparation of the MG infected fowls was performed in the same manner as in (1) above. Infection of H.pp (otherwise called Actinobacillus pleuropneumoniae) to cause pleuropneumonia in pig was performed by inoculating 5 ml of a fresh cultured strain (i.e. M-1) of H.pp to each nasopharyngeal of some 45 days pigs, each weighing 4 to 9 kg (4 to 5 pigs/group), followed by injection of the test compounds to each thigh muscle at a designated volume one time. Pigs were dissected 6 days after the inoculation. The evaluation of the antimicrobial activity was made by observation of the pneumonia symptomes in air sacs, number of dead body and degree of nodosity in air sacks on dissection.

[10] = tested on: Salmonella typhimurium (S.typhi) 13311; assay: In vitro sensitivity test (agar dilution method); format: cell-based; settings: 37°C, 20 to 24 hours
[11] = tested on: Escherichia coli (E.coli) JC-2; assay: In vitro sensitivity test (agar dilution method); format: cell-based; settings: 37°C, 20 to 24 hours
[12] = tested on: Hemophilus paragallinarum (H.pg) S-1; assay: In vitro sensitivity test (agar dilution method); format: cell-based; settings: agar dilution, 37°C, 20 hours, 10 % CO₂
[13] = tested on: Bordetella bronchiseptica (B.br) ABU-1; assay: In vitro sensitivity test (agar dilution method); format: cell-based; settings: 37°C, 20 to 24 hours
[14] = tested on: Hemophilus pleuropneumonia (H.pp) M-1; assay: In vitro sensitivity test (agar dilution method); format: cell-based; settings: 37°C, 20 hours, 10 % CO₂
[15] = tested on: Staphylococcus aureus (S.au) 209P; assay: In vitro sensitivity test (agar dilution method); format: cell-based; settings: 37°C, 20 to 24 hours
Method in brief: (§2)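 Bacteria were of animal origin. MS strains were grown by liquid dilution in Frey medium with 12 % pig-serum and 0.01 % βNAD at 37°C for 7 days. S.au was tested by agar dilution on Mueller Hinton agar, 37°C for 20 to 24 hours. P.pis was grown on 1.5 % NaCl heart infusion agar at 25°C for 40 to 48 hours.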

[16] = tested on: Escherichia coli (E.coli) E-17, chicken-origin strain isolated from the field; assay: In vitro sensitivity test (agar dilution method); format: cell-based; settings: 37°C, 20 to 24 hours
Method in brief: as §2

[17] = tested on: Hemophilus paragallinarum (H.pg) 221; assay: In vitro sensitivity test (agar dilution method); format: cell-based; settings: agar dilution, 37°C, 20 hours, 10 % CO₂

## Cl.Nc1c(F)c(N2C[C@@H]3CC[C@@H](N)[C@@H]3C2)c(F)c2c1c(=O)c(C(=O)O)cn2C1CC1 (relative stereo) [I-16]
[1]
  In vitro Sensitivity Test MS 1853: 0.39 µg/mL
[2]
  In vitro Sensitivity Test MS F10-2as: 0.2 µg/ml
[3]
  In vitro Sensitivity Test MG T-7-T: 0.00313 µg/mL
[4]
  In vitro Sensitivity Test MG S6: <0.0313 µg/mL
[5]
  In vitro Sensitivity Test Mh ST-11: <0.025 µg/mL
[6]; oral 6.25 mg/kg
  Infectious index Left air sack +: 0
  Infectious index Left air sack ++: 0
  Infectious index Left air sack +++: 0
  Infectious index Left air sack -: 4
  Infectious index Right air sack +: 0
  Infectious index Right air sack ++: 3
  Infectious index Right air sack +++: 0
  Infectious index Right air sack -: 1
  Number of fowl having air sack lesions: 3
  Number of infected fowl/Number of fowl tested: 2/5
[6]; oral 12.5 mg/kg
  Infectious index Left air sack +: 0
  Infectious index Left air sack ++: 0
  Infectious index Left air sack +++: 0
  Infectious index Left air sack -: 5
  Infectious index Right air sack +: 0
  Infectious index Right air sack ++: 0
  Infectious index Right air sack +++: 0
  Infectious index Right air sack -: 5
  Number of fowl having air sack lesions: 0
[6]; oral 25.0 mg/kg
  Infectious index Left air sack +: 0
  Infectious index Left air sack ++: 0
  Infectious index Left air sack +++: 0
  Infectious index Left air sack -: 5
  Infectious index Right air sack +: 0
  Infectious index Right air sack ++: 0
  Infectious index Right air sack +++: 0
  Infectious index Right air sack -: 5
  Number of fowl having air sack lesions: 0
[6]; oral 1.56 mg/kg
  Number of infected fowl/Number of fowl tested: 5/5
[6]; oral 3.13 mg/kg
  Number of infected fowl/Number of fowl tested: 2/5
[7]
  In vitro Sensitivity Test Str.sp SNO6119: 0.39 µg/mL
[8]
  In vitro Sensitivity Test P.pis No. 2: 0.39 µg/mL
[9]
  Number of pig having nodi/Number of pig tested: 0/4
[10]
  In vitro Sensitivity Test S.typhi 13311: 0.05 µg/mL
[11]
  In vitro Sensitivity Test E.coli JC-2: 0.05 µg/mL
[12]
  In vitro Sensitivity Test H.pg S-1: 0.2 µg/mL
[13]
  In vitro Sensitivity Test B.br ABU-1: 1.56 µg/mL
[14]
  In vitro Sensitivity Test H.pp M-1: 0.2 µg/mL
[15]
  In vitro Sensitivity Test S.au 209P: 0.025 µg/mL
[16]
  In vitro Sensitivity Test E.coli E-17: 0.025 µg/ml
[17]
  In vitro Sensitivity Test H.pg 221: 0.2 µg/mL
